Results published in ChEMBL document CHEMBL5375997, “Small Molecule Inhibitors Targeting the "Undruggable" Survivin: The Past, Present, and Future from a Medicinal Chemist's Perspective” (J Med Chem, 2023).

Assays:
[1] = system: PC-3; assay: Cytotoxicity against human PC-3 cells assessed as reduction in cell viability incubated for 24 hrs by MTT assay; settings: PC-3, 24 h
[2] = system: LNCaP C4-2; assay: Cytotoxicity against human LNCaP C4-2 cells assessed as cell growth inhibition incubated for 24 hrs by MTT assay; assay type: functional, cell-based; settings: LNCaP C4-2, 24 h
[3] = system: PC-3; assay: Cytotoxicity against human PC-3 cells assessed as reduction in cell growth incubated for 72 hrs by SRB assay; assay type: functional, cell-based; settings: PC-3, 72 h
[4] = system: MDA-MB-231; assay: Cytotoxicity against human MDA-MB-231 cells assessed as inhibition of cell growth incubated for 72 hrs by SRB assay; assay type: functional, cell-based; settings: MDA-MB-231, 72 h
[5] = system: HepG2; assay: Cytotoxicity against human HepG2 cells assessed as reduction in cell viability incubated for 72 hrs by SRB assay; assay type: functional, cell-based; settings: HepG2, 72 h
[6] = system: NCI-H69; assay: Antiproliferative activity against human NCI-H69 cells assessed as reduction in cell growth; assay type: functional, cell-based
[7] = system: EKVX; assay: Antiproliferative activity against human EKVX cells assessed as cell growth inhibition incubated for 72 hrs by MTT assay; assay type: functional, cell-based
[8] = system: NCI-H460; assay: Antiproliferative activity against human NCI-H460 cells assessed as reduction in cell viability incubated for 24 hrs by MTT assay; assay type: functional, cell-based; settings: NCI-H460, 24 h
[9] = system: A549; assay: Antiproliferative activity against human A549 cells assessed as reduction in cell viability by MTT assay; assay type: functional, cell-based
[10] = system: HCT-116; assay: Antiproliferative activity against human HCT-116 cells assessed as reduction in cell proliferation measured after 72 hrs by MTT assay; assay type: functional, cell-based; settings: HCT-116, 72 h
[11] = system: HCT-8; assay: Antiproliferative activity against human HCT-8 cells assessed as inhibition of cell growth; assay type: functional, cell-based
[12] = system: SW-620; assay: Antiproliferative activity against human SW620 cells assessed as reduction in cell viability incubated for 72 hrs by MTT assay; assay type: functional, cell-based; settings: SW-620, 72 h
[13] = AUC in mouse plasma at 3 mg/kg, iv measured upto 24 hrs by LC-MS/MS analysis; assay type: ADME, organism-based; design: dose 3 mg/kg, time < 24 hrs, route iv; settings: in vivo
[14] = Clearance in […] at 3 mg/kg, iv incubated for 24 hrs by LC-MS/MS analysis; assay type: ADME, organism-based; settings: in vivo
[15] = Cmax in […] at 1 mg/kg, iv and measured upto 24 hrs by LC/MS/MS analysis; assay type: ADME, organism-based; design: time < 24 hrs, dose 1 mg/kg, route iv; settings: in vivo
[16] = Half life in CD1 mouse at 1 mg/kg, iv by LC-MS/MS analysis; assay type: ADME, organism-based; settings: in vivo
[17] = system: DU-145; assay: Cytotoxicity against human DU-145 cells assessed as reduction in cell viability by SRB assay; assay type: functional, cell-based
[18] = system: A-375; assay: Anticancer activity against human A375 cells assessed as reduction in cell viability incubated for 72 hrs by MTT assay; assay type: functional, cell-based; settings: A-375, 72 h
[19] = system: CWR22R; assay: Cytotoxicity against human 22Rv1 cells assessed as cell growth inhibition; assay type: functional, cell-based
[20] = system: SK-MEL-5; assay: Antiproliferative activity against human SK-MEL-5 cells assessed as reduction in cell viability; assay type: functional, cell-based
[21] = Tmax in human plasma at 10 mg/kg, iv measured after 24 hrs; assay type: ADME, organism-based
[22] = Half life in iv dosed human plasma; assay type: ADME, organism-based
[23] = Half life in human plasma after iv dosing; settings: in vivo
[24] = system: DU-145; assay: cells; settings: Homo sapiens, DU-145, 24 h
Description: Cytotoxicity against human DU-145 cells assessed as inhibition of cell growth incubated for 24 hrs by MTT assay

[25] = Cytotoxicity against human HaCaT cells assessed as reduction in cell viability; assay type: toxicity, cell-based
[26] = Oral bioavailability in mouse plasma; assay type: ADME, organism-based
[27] = Cmax in […] at 1 mg/kg, po and measured upto 24 hrs by LC/MS/MS analysis; assay type: ADME, organism-based; design: time < 24 hrs, dose 1 mg/kg, route po; settings: in vivo
[28] = system: GBM528 (human); assay: Antiproliferative activity against human GBM528 cells assessed as sphere formation inhibition
[29] = system: HCT-116; assay: Cytotoxicity against human HCT-116 cells assessed as reduction in cell viability by MTT assay; assay type: functional, cell-based
[30] = system: MCF7; assay: Cytotoxicity against human MCF7 cells assessed as inhibition of cell growth by MTT assay; assay type: functional, cell-based
[31] = Cytotoxicity against human HepG2 cells assessed as reduction in cell viability by MTT assay; assay type: functional, cell-based
[32] = system: HeLa; assay: Cytotoxicity against human HeLa cells assessed as inhibition of cell growth by MTT assay; assay type: functional, cell-based
[33] = system: A549; assay: Cytotoxicity against human A549 cells assessed as reduction in cell viability by MTT assay; assay type: functional, cell-based
[34] = system: A-375; assay: Cytotoxicity against human A-375 cells assessed as inhibition of cell growth; assay type: functional, cell-based
[35] = system: M14; assay: Antiproliferative activity against human M14 cells assessed as reduction cell viability incubated for 48 hrs by MTT assay; assay type: functional, cell-based; settings: M14, 48 h
[36] = system: M14; assay: Antiproliferative activity against human M14 cells assessed as inhibition of cell growth measured after 48 hrs by SRB assay; assay type: functional, cell-based; settings: M14, 48 h
[37] = system: PC-3; assay: Cytotoxicity against human PC-3 cells assessed as inhibition of cell growth; assay type: functional, cell-based
[38] = system: DU-145; assay: Cytotoxicity against human DU-145 cells assessed as inhibition of cell growth; assay type: functional, cell-based
[39] = system: PC-3; assay: Anticancer activity against human PC-3 cells assessed as cell growth inhibition by sulforhodamine B assay; assay type: functional, cell-based
[40] = system: LNCaP C4-2; assay: Antiproliferative activity against human LNCaP C4-2 cells assessed as cell growth inhibition; assay type: functional, cell-based
[41] = system: EL4; assay: Cytotoxicity against mouse EL4 cells assessed as inhibition of cell proliferation incubated for 72 hrs by MTT assay; assay type: functional, cell-based; settings: EL4, 72 h
[42] = system: L1210; assay: Antiproliferative activity against mouse L1210 cells assessed as reduction in cell viability incubated for 48 hrs by MTT assay; assay type: functional, cell-based; settings: L1210, 48 h

## COc1cccc(Nc2nc3ccccc3nc2Nc2cccc(OC)c2OC)c1OC
[1]
  IC50: 24.8 µM
[2]
  IC50: 17.6 µM

## N#Cc1c(-c2ccc(Cl)cc2)cc(-c2ccc(OCc3ccc(F)cc3)cc2)[nH]c1=S
[3]
  IC50: 23 µM
[4]
  IC50: 23 µM
[5]
  IC50: 23 µM

## N#Cc1c(-c2ccc(F)cc2)cc(-c2ccc(OCc3ccc(F)cc3)cc2)[nH]c1=O
[3]
  IC50: 14.4 µM
[4]
  IC50: 14.4 µM
[5]
  IC50: 14.4 µM

## Oc1ccc(CCCc2ccc(O)c(O)c2)cc1O
[6]
  IC50: > 100 µM

## N#Cc1c(-c2ccccc2)cc(-c2ccc(OCc3ccc(F)cc3)cc2)nc1N
[3]
  IC50: > 100 µM
[4]
  IC50: > 100 µM
[5]
  IC50: > 100 µM

## CC[C@@]1(O)C(=O)OCc2c1cc1n(c2=O)Cc2cc3cc4c(cc3nc2-1)OCO4
[7]
  IC50: 0.006 µM
[8]
  IC50: 0.003 µM
[9]
  IC50: 0.009 µM
[10]
  IC50: 0.005 µM
[11]
  IC50: 0.005 µM
[12]
  IC50: 0.009 µM
[13]
  AUC: 82 ng·h/mL
[14]
  clearance: 900 mL/min/kg
[15]
  Cmax: 43 ng/mL
[16]
  half-life: 1.8 h

## COCCn1c2c([n+](Cc3cnccn3)c1C)C(=O)c1ccccc1C2=O.[Br-] [SEPANTRONIUM BROMIDE]
[17]
  IC50: 0.004 µM
[18]
  IC50: 0.006 µM
[19]
  IC50: 0.011 µM
[20]
  IC50: 0.004 µM
[21]
  Tmax: 46 h
[22]
  half-life: 26.3 h
[13]
  AUC: 1440 ng·h/mL
[14]
  clearance: 795 mL/min/kg
[15]
  Cmax: 10.7 ng/mL
[23]
  half-life: 17.2 h

## Cc1cccc(Nc2nc3nonc3nc2N/N=C/c2cc3c(cc2[N+](=O)[O-])OCO3)c1C
[1]
  IC50: 2.1 µM
[24]
  IC50: 2.6 µM

## Oc1ccc(CCCCCc2ccc(O)c(O)c2)cc1O
[6]
  IC50: 3 µM

## N#Cc1c(-c2ccccc2)cc(-c2ccc(OCc3ccc(F)cc3)cc2)[nH]c1=S
[3]
  IC50: 23 µM
[4]
  IC50: 23 µM
[5]
  IC50: 23 µM

## COc1ccc(C[C@@H](C)[C@@H](C)Cc2ccc(OC)c(OC)c2)cc1OC [TERAMEPROCOL]
[25]
  IC50: 85 µM
[26]
  bioavailability: 88.3%
[13]
  AUC: 2980 ng·h/mL
[15]
  Cmax: 1060 ng/mL
[27]
  Cmax: 442 ng/mL

## N#Cc1c(-c2ccc(Br)cc2)cc(-c2ccc(OCc3ccc(F)cc3)cc2)[nH]c1=O
[3]
  IC50: 14.4 µM
[4]
  IC50: 14.4 µM
[5]
  IC50: 14.4 µM

## O=C1N=c2ccc(Nc3nc4nonc4nc3N/N=C/c3ccccc3OCc3ccc(Cl)cc3Cl)cc2=N1
[1]
  IC50: 49.8 µM
[24]
  IC50: 60.3 µM

## N#Cc1c(-c2ccc(F)cc2)cc(-c2ccc(OCc3ccc(F)cc3)cc2)[nH]c1=S
[3]
  IC50: 23 µM
[4]
  IC50: 23 µM
[5]
  IC50: 23 µM

## N#Cc1c(-c2cc(OCc3ccccc3)cc(OCc3ccccc3)c2)cc(-c2cc(Cl)ccc2O)[nH]c1=O
[28]
  IC50: 31.2 µM

## Cc1cccc(Nc2nc3nonc3nc2N/N=C/c2ccc(-c3cccc(C(=O)O)c3)o2)c1C
[1]
  IC50: 20 µM
[24]
  IC50: 25 µM

## N#Cc1c(-c2ccccc2)cc(-c2ccc(OCc3ccc(F)cc3)cc2)[nH]c1=O
[3]
  IC50: 14.4 µM
[4]
  IC50: 14.4 µM
[5]
  IC50: 14.4 µM

## CC[C@@]1(O)C(=O)OCc2c1cc1n(c2=O)Cc2cc3c(-c4ccc(C(F)(F)F)cc4)c4c(cc3nc2-1)OCO4
[29]
  IC50: 0.78 µM
[30]
  IC50: 0.78 µM
[31]
  IC50: 0.78 µM
[32]
  IC50: 0.78 µM
[33]
  IC50: 0.78 µM

## CCOC(=O)c1ccc(Nc2nc3nonc3nc2N/N=C/c2c[nH]nc2-c2ccccc2)cc1
[24]
  IC50: 3.5 µM

## COc1ccc(-c2cc(-c3ccc(OCc4ccc(F)cc4)cc3)[nH]c(=S)c2C#N)cc1
[3]
  IC50: 23 µM
[4]
  IC50: 23 µM
[5]
  IC50: 23 µM

## COc1ccc(-c2cc(-c3ccc(OCc4ccc(F)cc4)cc3)nc(N)c2C#N)cc1
[3]
  IC50: > 100 µM
[4]
  IC50: > 100 µM
[5]
  IC50: > 100 µM

## N#Cc1c(-c2ccc(Cl)cc2)cc(-c2ccc(OCc3ccc(F)cc3)cc2)[nH]c1=O
[3]
  IC50: 14.4 µM
[4]
  IC50: 14.4 µM
[5]
  IC50: 14.4 µM

## N#Cc1c(-c2ccc(Cl)cc2)cc(-c2ccc(OCc3ccc(F)cc3)cc2)nc1N
[3]
  IC50: > 100 µM
[4]
  IC50: > 100 µM
[5]
  IC50: > 100 µM

## Oc1cc(CCCCc2cc(O)c(O)c(O)c2)cc(O)c1O
[6]
  IC50: 6 µM

## Cc1ccc(-c2ccc(/C=N/Nc3nc4nonc4nc3Nc3ccc(Br)cc3)o2)cc1Cl
[1]
  IC50: 3.5 µM
[24]
  IC50: 3.3 µM

## N#Cc1c(-c2ccc(Br)cc2)cc(-c2ccc(OCc3ccc(F)cc3)cc2)nc1N
[3]
  IC50: 30 µM
[4]
  IC50: 30 µM
[5]
  IC50: 30 µM

## Oc1c(CN2CCCC2)cc(COCc2ccccc2)c2cccnc12
[34]
  IC50: 1.6 µM
[35]
  IC50: 2.5 µM
[36]
  IC50: 3.2 µM
[37]
  IC50: 0.7 µM
[38]
  IC50: 3.4 µM

## N#Cc1c(-c2ccc(Br)cc2)cc(-c2ccc(OCc3ccc(F)cc3)cc2)[nH]c1=S
[3]
  IC50: 23 µM
[4]
  IC50: 23 µM
[5]
  IC50: 23 µM

## Oc1ccc(CCCCc2ccc(O)cc2)cc1
[6]
  IC50: 3.9 µM

## Nc1nonc1C(=O)N/N=C1\c2ccccc2-c2nc3nonc3nc21
[39]
  IC50: 4.3 µM
[40]
  IC50: 1.9 µM
[1]
  IC50: 4.3 µM
[2]
  IC50: 1.9 µM

## CO[C@]12CC(=O)O[C@]13C(=O)c1c(cc4cc(O)c5c(c4c1O)CN(C)C5=O)C(=O)[C@]3(O[C@H]1CC[C@H](O)[C@H](C)O1)CO2
[41]
  IC50: 0.112 µM
[42]
  IC50: 0.153 µM

## Cc1cccc(Nc2nc3nonc3nc2N/N=C/c2ccc(-c3ccc(Cl)c([N+](=O)[O-])c3)o2)c1C
[1]
  IC50: 4.8 µM
[24]
  IC50: 7.2 µM

## COc1ccc(-c2cc(-c3ccc(OCc4ccc(F)cc4)cc3)[nH]c(=O)c2C#N)cc1
[3]
  IC50: 4.46 µM
[4]
  IC50: 3.59 µM
[5]
  IC50: 6.01 µM
